Measured values as given in patent publication US9833430B2, “Neurodegenerative disorders and methods of treatment and diagnosis thereof” (The University of Queensland, priority 2013, dated 2017).
Entries after “also recorded” stand apart in the source; their conditions may differ.

How the values were obtained:
Format in all cases: in vivo
hSOD1^G93A mice [1] = assay: Hind limb grip strength test in hSOD1^G93A mice on triheptanoin diet
Description: (§1) All experiments were approved by the University of Queensland's Animal Ethics Committee and followed the guidelines of the Queensland Animal Care and Protection Act 2001. All efforts were made to minimize the suffering and the number of animals used. Wild-type and hSOD1^G93A mice (B6.Cg-Tg(SOD1*G93A)1 Gur/J, stock no. 004435, Jackson laboratory, Maine, USA), were generated by mating hSOD1^G93A males with C57B/L6 wild-type females (University of Queensland). Mice were housed in a 12 hour light, 12 hour dark cycle, and had free access to food and water. Experimenters were blinded to animal genotype (until the mice started expressing the ALS phenotype) and dietary interventions.
(§2) Immediately after weaning, mice were placed on either a standard diet (SF11-027, Specialty Feeds, WA, AUS) or a matched diet (SF11-028, Specialty Feeds) in which 35% of the calories were from triheptanoin oil (Sasol, Germany). All diets were matched in protein, mineral, antioxidant and vitamin content relative to their caloric densities (Thomas et al., 2012). Triheptanoin replaced sucrose, some of the complex carbohydrates and long chain fats in the diet.
Animals underwent behavioral testing approximately 3-4 hours into the light cycle. All behavioral testing was conducted in an environment with minimal stimuli so as to minimize any possible effects caused by changes in external stimuli. Animals were weighed before every test session. Mice were observed, and disease progression tracked and graded according to a neurological score sheet to ensure that any non-ALS related deaths were excluded from the study. The neurological score was adapted from criteria developed at the ALS therapy development institute (Gill et al., 2009). In accordance with ethical requirements, hSOD1^G93A mice that became too weak to reach the food hoppers were provided with wet chow on the floor of the cages. The endpoint of the study was defined as the mouse being unable to right itself within 15 seconds after being placed on its back. Upon reaching end-stage or 25 weeks of age, transgenic mice and their respective wild-type littermates were euthanized with an overdose of pentobarbital (120 mg/kg, i.p., Provet, Australia). Tissues, including the m. gastrocnemius and tail, were collected for subsequent analysis. […]
(§3) Hind limb grip strength tests were conducted twice a week using a T-bar force transducer (Ugo Basile, Italy). […] The reading on the force transducer was taken only if both hind limbs released the bar at the same time. The average of 10 trials per mouse was recorded each training session. To compare time points of grip strength loss, the time point where a loss of more than 30% of the combined mean grip strength of week 9 to 13 was recorded, if the subsequent 3 measurements were ≦70% of the original average strength.

wild-type mice = assay: Hind limb grip strength test in wild-type mice on triheptanoin diet; conditions: triheptanoin n=15 vs control n=12
Description: as §1, with “interventions. […]” for “interventions.”
as §3

hSOD1^G93A mice [2] = assay: Rotarod test, onset of balance loss
From the text: as §2
(§4) Animals underwent behavioral testing approximately 3-4 hours into the light cycle. All behavioral testing was conducted in an environment with minimal stimuli so as to minimize any possible effects caused by changes in external stimuli. Animals were weighed before every test session. Mice were observed, and disease progression tracked and graded according to a neurological score sheet to ensure that any non-ALS related deaths were excluded from the study. The neurological score was adapted from criteria developed at the ALS therapy development institute (Gill et al., 2009). In accordance with ethical requirements, hSOD1^G93A mice that became too weak to reach the food hoppers were provided with wet chow on the floor of the cages. […]
The rotarod tests were conducted with 10 repeats once a week using a rotarod designed for mice (Ugo Basile, Italy). […] The time at which the animal fell off was recorded. […]

hSOD1^G93A mice [3] = assay: Body weight and onset of body weight loss in hSOD1^G93A mice
From the text: as §2
as §4, with “cages. The endpoint of the study was defined as the mouse being unable to right itself within 15 seconds after being placed on its back.” for “cages.”

hSOD1^G93A mice [4] = assay: Survival, days taken to reach end-stage
From the text: as §2
as §4, with “cages. The endpoint of the study was defined as the mouse being unable to right itself within 15 seconds after being placed on its back.” for “cages.”

hSOD1^G93A mice [5] = assay: Motor neuron counting (stereological, L2 to L5); conditions: hSOD1^G93A mice at 70 days
Description: Mice were fed with control or triheptanoin diet from 35 days until 70 days of age, when mice were anesthetized with pentobarbital (100 mg/kg i.p.), perfused with 0.9% saline followed by 4% paraformaldehyde. Spinal cords were removed and further fixed in 4% paraformaldehyde and subsequently embedded in OCT compound and serial sections of 16 μm were cut from lumbar vertebrae. Sections were washed in cold PBS and stained with 0.1% thionin in acetate buffer (pH3.4). The motor neurons were counted using stereological method as previously described (Banks et al., 2001; 2003; Forgarty et al., 2013). Briefly, motor neurons in the lateral motor column (LMC) from one side of the spinal cord were counted and only neurons that are large in size with darkly stained cytoplasm, pale nucleus and darkly stained nucleoli were counted (Clarke and Oppenheim, 1995). Every 10th section from lumbar 2 to lumbar 5 regions was counted to get the total motor neuron count which was then divided by the number of sections counted and multiplied by the total number of sections containing the LMC.

[6] = tested on: Pdha1, Ogdh, Sdha and Mut mRNA in gastrocnemius muscle of hSOD1^G93A mice; assay: Quantitative real time PCR of metabolic genes in gastrocnemius muscle; conditions: 10 week old hSOD1^G93A mice, triheptanoin feeding
From the text: After euthanasia, the gastrocnemius muscle was quickly removed and frozen in liquid nitrogen. To extract RNA, muscle samples were pulverized in liquid nitrogen with a cold mortar and pestle, dissolved with TRI reagent (Life Technologies, CA, USA) and extracted according to the manufacturer's instructions. Contaminating DNA was removed by DNase I treatment and cDNA was synthesized using the Tetro cDNA synthesis kit (Bioline, London, UK) according to the manufacturer's instructions.
Expression of several metabolic genes was assayed (Gapdh, Pdha1, Ogdh, Sdha, Pcx, Gpt1, Gpt2, Pcca, Pccb and Mut) by quantitative real time PCR. All primers pairs (Table 1) were evaluated for efficiency using a 4 fold serial dilution series of muscle cDNA. The derived slope of each primer pair was used to calculate the efficiency by applying the formula, […]. Reactions consisted with diluted cDNA, 5 μl of SYBR Green Mastermix and 8 μM of forward and reverse primers each, and were amplified after an initial hot start. Conditions for cycling and the melt curve were identical to those described for quantitative genotyping. Samples without reverse transcriptase treatment were assayed to ensure that samples were free from DNA contamination. The fold expression (ΔCT) of the gene of interest (goi) relative to the geometric mean of housekeeping genes (Tbp, B2m and Hmbs) were calculated with a formula adapted from (Vandesompele et al., 2002) taking into consideration the individual efficiencies (E) of each primer pair.

SMILES: CCCCCCC(=O)OCC(COC(=O)CCCCCC)OC(=O)CCCCCC [triheptanoin, 1,3-di(heptanoyloxy)propan-2-yl heptanoate]
- hind limb grip strength (upper limit over time) (hSOD1^G93A mice [1]; hSOD1^G93A mice on both diets): ≤ 400 mN
- onset of hind limb grip strength loss delayed by (hSOD1^G93A mice [1]; high copy number (19-24) hSOD1^G93A mice, diet with 35% of calories from triheptanoin vs control diet (n=8 vs n=5)): 2.8 weeks
- hind limb grip strength at 18 and 19.5 weeks of age vs control diet (hSOD1^G93A mice [1]; high copy number hSOD1^G93A mice, Bonferroni post-hoc p<0.05): higher hind limb grip strength; also recorded: significantly higher grip strength
- area under the curve for grip strength over time, increase relative to control diet (hSOD1^G93A mice [1]; high copy number hSOD1^G93A mice, triheptanoin diet vs control diet, p=0.024): 38%
- difference in mean hind limb grip strength vs control diet (wild-type mice): no observable difference
- time of onset of loss of balance delayed by (hSOD1^G93A mice [2]; hSOD1^G93A mice, triheptanoin vs control diet, p=0.0016): 1.6 weeks
- onset of balance loss on the rota-rod delayed by (hSOD1^G93A mice [2]; triheptanoin fed vs control fed SOD1^G93A mice, p=0.0016 (FIG. 3F legend)): 13 days
- onset of body weight loss delayed by (hSOD1^G93A mice [3]; hSOD1^G93A mice, triheptanoin feeding vs control, p=0.007): 1.6 weeks
- onset of body weight loss delayed by (hSOD1^G93A mice [3]; triheptanoin fed (n=8) vs control fed (n=5) SOD1^G93A mice, p=0.0076 (FIG. 3H legend)): 11 days
- effect on survival (hSOD1^G93A mice [4]; small study): did not alter survival
- number of days taken to reach end-stage (hSOD1^G93A mice [4]; triheptanoin n=7, mean±SEM, p=0.653 vs control): 174.9 ± 3.5 days
- loss of motor neurons between L2 and L5 vs wild type (hSOD1^G93A mice [5]; triheptanoin diet from 35 days (n=4), control diet 37% loss): 21%
- motor neuron numbers compared with wild type mice (hSOD1^G93A mice [5]; triheptanoin fed, n=4): not significantly different from wild type mice
- protection from reduced expression of 2-oxo-glutarate dehydrogenase (Ogdh) mRNA [6]: not
- protection from reduced expression of methylmalonyl mutase (Mut) mRNA [6]: not
- protection from reduced expression of pyruvate dehydrogenase (Pdha1) mRNA [6]: protected
- protection from reduced expression of succinate dehydrogenase (Sdha) mRNA [6]: protected
